Laboratory results published in patent publication US20260015358A1, “BICYCLIC DERIVATIVES, COMPOSITIONS AND USES THEREOF” (Danatlas Pharmaceuticals Co., Ltd., priority 2023, published 2026).

Columns and labels:
[1] = biological target: T1, WRN [UniPro: Q14191 (WRN_HUMAN), N500-C946] (Homo sapiens (Human), UniProt Q14191); test: WRN ATPase assay (ADP-Glo); format: biochemical; conditions: WRN enzymatic activity assay
[2] = biological target: T1, WRN [UniPro: Q14191 (WRN_HUMAN), N500-C946]; test: WRN unwinding assay (FORKF DNA, fluorescence); format: biochemical; conditions: Table 14

T1 sequence (Q14191 500-946): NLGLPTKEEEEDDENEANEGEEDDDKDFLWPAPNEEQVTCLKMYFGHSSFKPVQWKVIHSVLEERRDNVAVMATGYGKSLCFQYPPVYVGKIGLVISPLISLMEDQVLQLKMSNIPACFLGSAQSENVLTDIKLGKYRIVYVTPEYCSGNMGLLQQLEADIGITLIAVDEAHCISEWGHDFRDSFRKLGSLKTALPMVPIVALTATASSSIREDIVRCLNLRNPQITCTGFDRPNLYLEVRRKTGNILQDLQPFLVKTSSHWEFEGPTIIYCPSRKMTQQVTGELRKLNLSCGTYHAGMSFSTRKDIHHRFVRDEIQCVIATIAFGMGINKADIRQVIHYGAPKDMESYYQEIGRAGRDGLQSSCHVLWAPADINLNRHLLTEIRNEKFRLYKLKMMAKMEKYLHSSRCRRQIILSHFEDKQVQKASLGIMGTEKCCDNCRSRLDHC

Compound | IC50 [1] | IC50 [2]
[2H]C([2H])(NC(=O)c1ccccc1F)C(=O)N1CCN(c2c(CC)n(C([2H])([2H])C(=O)Nc3ccc(C(F)(F)F)cc3F)c3nc(C4=CCOCC4)nn3c2=O)CC1 [Example 225, N-(2-(4-(2-(3,6-Dihydro-2H-pyran-4-yl)-5-ethyl-4-(2-((2-fluoro-4-(trifluoromethyl)phenyl)amino)-2-oxoethyl-1,1-d2)-7-oxo-4,7-dihydro-[1,2,4]triazolo[1,5-a]pyrimidin-6-yl)piperazin-1-yl)-2-oxoethyl-1,1-d2)-2-fluorobenzamide] | < 0.1 µM | < 0.1 µM
CCc1c(N2CCN(C(=O)c3cnc4[nH]ncc4c3O)CC2)c(=O)n2nc(C3=CCOCC3)nc2n1CC(=O)Nc1ccc(C(F)(F)F)cc1Cl [Example 3, N-(2-Chloro-4-(trifluoromethyl)phenyl)-2-(2-(3,6-dihydro-2H-pyran-4-yl)-5-ethyl-6-(4-(4-hydroxy-1H-pyrazolo[3,4-b]pyridine-5-carbonyl)piperazin-1-yl)-7-oxo-[1,2,4]triazolo[1,5-a]pyrimidin-4(7H)-yl)acetamide] | < 0.1 µM | < 0.1 µM
CCc1c(N2CCN(C(=O)CNC(=O)c3ccn(C)n3)CC2)c(=O)n2nc(C3=CCOCC3)nc2n1CC(=O)Nc1ccc(C(F)(F)F)cc1Cl [Example 102, N-(2-(4-(4-(2-((2-Chloro-4-(trifluoromethyl)phenyl)amino)-2-oxoethyl)-2-(3,6-dihydro-2H-pyran-4-yl)-5-ethyl-7-oxo-4,7-dihydro-[1,2,4]triazolo[1,5-a]pyrimidin-6-yl)piperazin-1-yl)-2-oxoethyl)-1-methyl-1H-pyrazole-3-carboxamide] | < 0.1 µM | < 0.1 µM
CCc1c(N2CCN(C(=O)C(=O)Nc3nc(C)cs3)CC2)c(=O)n2nc(C3=CCOCC3)nc2n1CC(=O)Nc1ccc(C(F)(F)F)cc1Cl [Example 347, 2-(4-(4-(2-((2-Chloro-4-(trifluoromethyl)phenyl)amino)-2-oxoethyl)-2-(3,6-dihydro-2H-pyran-4-yl)-5-ethyl-7-oxo-4,7-dihydro-[1,2,4]triazolo[1,5-a]pyrimidin-6-yl)piperazin-1-yl)-N-(4-methylthiazol-2-yl)-2-oxoacetamide] | < 0.1 µM | < 0.1 µM
CCc1c(N2CCN(C(=O)C(=O)Nc3cc(C)no3)CC2)c(=O)n2nc(C3=CCOCC3)nc2n1CC(=O)Nc1ccc(C(F)(F)F)cc1F [Example 324, 2-(4-(2-(3,6-Dihydro-2H-pyran-4-yl)-5-ethyl-4-(2-((2-fluoro-4-(trifluoromethyl)phenyl)amino)-2-oxoethyl)-7-oxo-4,7-dihydro-[1,2,4]triazolo[1,5-a]pyrimidin-6-yl)piperazin-1-yl)-N-(3-methylisoxazol-5-yl)-2-oxoacetamide] | < 0.1 µM | < 0.1 µM

Further lines, results first:

IC50 [1] | IC50 [2] | Compound
< 0.1 µM | < 0.1 µM | CCc1c(N2CCN(C(=O)CNC(=O)c3cc(C#N)ccc3F)CC2)c(=O)n2nc(C3=CCOCC3)nc2n1CC(=O)Nc1ccc(C(F)(F)F)cc1Cl [Example 382, N-(2-(4-(4-(2-((2-Chloro-4-(trifluoromethyl)phenyl)amino)-2-oxoethyl)-2-(3,6-dihydro-2H-pyran-4-yl)-5-ethyl-7-oxo-4,7-dihydro-[1,2,4]triazolo[1,5-a]pyrimidin-6-yl)piperazin-1-yl)-2-oxoethyl)-5-cyano-2-fluorobenzamide]
< 0.1 µM | < 0.1 µM | CCc1c(N2CCN(C(=O)CNC(=O)c3ccno3)CC2)c(=O)n2nc(C3=CCOCC3)nc2n1CC(=O)Nc1ccc(C(F)(F)F)cc1Cl [Example 370, N-(2-(4-(4-(2-((2-Chloro-4-(trifluoromethyl)phenyl)amino)-2-oxoethyl)-2-(3,6-dihydro-2H-pyran-4-yl)-5-ethyl-7-oxo-4,7-dihydro-[1,2,4]triazolo[1,5-a]pyrimidin-6-yl)piperazin-1-yl)-2-oxoethyl) isoxazole-5-carboxamide]
